This test deals with MV-4-11 cells. Briefly: Gene expression microarray analysis (Affymetrix PrimeView) and GSEA. The class given is cell-based, human. The settings on record: ProbeSet 11759094_a_at; LIST D. Set-up: RFU PODN (11730768_x_at) / Fold change /veh PODN (11730768_x_at) / RFU LINC00158 (11744669_a_at) / Fold change /veh LINC00158 (11744669_a_at) / RFU DUSP10 (11751237_a_at) / Fold change /veh DUSP10 (11751237_a_at) / RFU ID3 (11757404_x_at) / Fold change /veh ID3 (11757404_x_at) / RFU PLEKHG5 (11737974_s_at) / Fold change /veh PLEKHG5 (11737974_s_at) / RFU LRRC4B (11730491_at) / Fold change /veh LRRC4B (11730491_at) / RFU GIMAP4 (11747438_a_at) / Fold change /veh GIMAP4 (11747438_a_at) / RFU KRT8 (11758183_x_at) / Fold change /veh KRT8 (11758183_x_at) / RFU CNN1 (11734310_a_at) / Fold change /veh CNN1 (11734310_a_at) / RFU VPS37D (11726825_at) / Fold change /veh VPS37D (11726825_at) / RFU C10orf10 (11716522_x_at) / Fold change /veh C10orf10 (11716522_x_at) / RFU KIR2DL2 /// KIR2DL4 /// KIR2DL5A /// KIR2DL5B /// KIR2DS1 /// KIR2DS2 /// KIR2DS3 /// KIR2DS4 /// KIR3DL3 /// KIR3DL3 /// KIR3DS1 (11738374_at) / Fold change /veh KIR2DL2 /// KIR2DL4 /// KIR2DL5A /// KIR2DL5B /// KIR2DS1 /// KIR2DS2 /// KIR2DS3 /// KIR2DS4 /// KIR3DL3 /// KIR3DL3 /// KIR3DS1 (11738374_at) / RFU C1QL1 (11718748_at) / Fold change /veh C1QL1 (11718748_at) / RFU TMPRSS4 (11747572_a_at) / Fold change /veh TMPRSS4 (11747572_a_at) / RFU HAMP (11756126_x_at) / Fold change /veh HAMP (11756126_x_at) / RFU RNFT2 (11725882_a_at) / Fold change /veh RNFT2 (11725882_a_at) / RFU NR4A2 (11747474_a_at) / Fold change /veh NR4A2 (11747474_a_at) / RFU ABCC12 (11746883_a_at) / Fold change /veh ABCC12 (11746883_a_at) / RFU TMEM136 (11760407_x_at) / Fold change /veh TMEM136 (11760407_x_at) / RFU CLDN22 /// WWC2 (11732394_at) / Fold change /veh CLDN22 /// WWC2 (11732394_at) / RFU HLA-DPB1 (11760878_x_at) / Fold change /veh HLA-DPB1 (11760878_x_at) / RFU SPINT1 (11716480_a_at) / Fold change /veh SPINT1 (11716480_a_at) / RFU GAP43 (11754022_s_at) / Fold change /veh GAP43 (11754022_s_at) / RFU A4GNT (11735810_at) / Fold change /veh A4GNT (11735810_at) / RFU PRB3 (11715151_x_at) / Fold change /veh PRB3 (11715151_x_at) / RFU TUBB4B (11761932_at) / Fold change /veh TUBB4B (11761932_at) / RFU CAPN14 (11732068_a_at) / Fold change /veh CAPN14 (11732068_a_at) / RFU TMCC2 (11721928_a_at) / Fold change /veh TMCC2 (11721928_a_at) / RFU IRGQ (11745062_a_at) / Fold change /veh IRGQ (11745062_a_at) / RFU FAM174B (11720279_a_at) / Fold change /veh FAM174B (11720279_a_at) / RFU TMPRSS4 (11748680_a_at) / Fold change /veh TMPRSS4 (11748680_a_at) / RFU FAM212B (11763350_a_at) / Fold change /veh FAM212B (11763350_a_at) / RFU PLEKHG5 (11743358_a_at) / Fold change /veh PLEKHG5 (11743358_a_at) / RFU ZSCAN30 (11745921_a_at) / Fold change /veh ZSCAN30 (11745921_a_at) / RFU CMKLR1 (11741424_a_at) / Fold change /veh CMKLR1 (11741424_a_at) / RFU LOC101060620 /// MAPK8IP1 (11723275_at) / Fold change /veh LOC101060620 /// MAPK8IP1 (11723275_at) / RFU SPTSSB (11747773_x_at) / Fold change /veh SPTSSB (11747773_x_at) / RFU PRSS12 (11739890_at) / Fold change /veh PRSS12 (11739890_at) / RFU BIN1 (11741810_x_at) / Fold change /veh BIN1 (11741810_x_at) / RFU WNT11 (11732464_a_at) / Fold change /veh WNT11 (11732464_a_at) / RFU C10orf10 (11716521_a_at) / Fold change /veh C10orf10 (11716521_a_at) / RFU C5orf56 (11738089_at) / Fold change /veh C5orf56 (11738089_at) / RFU CYB561 (11721691_x_at) / Fold change /veh CYB561 (11721691_x_at) / RFU ANKRD19P (11752326_a_at) / Fold change /veh ANKRD19P (11752326_a_at) / RFU OR2T12 /// OR2T33 /// OR2T8 (11738714_s_at) / Fold change /veh OR2T12 /// OR2T33 /// OR2T8 (11738714_s_at) / RFU VCAN (11748164_a_at) / Fold change /veh VCAN (11748164_a_at) / RFU JSRP1 (11732532_at) / Fold change /veh JSRP1 (11732532_at) / RFU KRTAP10-11 (11738290_x_at) / Fold change /veh KRTAP10-11 (11738290_x_at) / RFU MYO3A (11730013_a_at) / Fold change /veh MYO3A (11730013_a_at) / RFU EBF3 (11725865_a_at) / Fold change /veh EBF3 (11725865_a_at) / RFU CAMK2N1 (11719241_x_at) / Fold change /veh CAMK2N1 (11719241_x_at) / RFU C5orf56 (11738088_a_at) / Fold change /veh C5orf56 (11738088_a_at) / RFU OLFML3 (11715873_a_at) / Fold change /veh OLFML3 (11715873_a_at) / RFU LOC100653217 /// NTM (11731650_a_at) / Fold change /veh LOC100653217 /// NTM (11731650_a_at) / RFU MAPK11 (11762145_a_at) / Fold change /veh MAPK11 (11762145_a_at) / RFU FIZ1 (11724087_x_at) / Fold change /veh FIZ1 (11724087_x_at) / RFU OASL (11726364_x_at) / Fold change /veh OASL (11726364_x_at) / RFU SOX15 (11748057_x_at) / Fold change /veh SOX15 (11748057_x_at) / RFU CD79A (11719716_a_at) / Fold change /veh CD79A (11719716_a_at) / RFU HIST1H1D (11736915_at) / Fold change /veh HIST1H1D (11736915_at) / RFU CASKIN2 (11723855_a_at) / Fold change /veh CASKIN2 (11723855_a_at) / RFU LOC730098 (11760151_x_at) / Fold change /veh LOC730098 (11760151_x_at) / RFU OR4N2 (11742367_at) / Fold change /veh OR4N2 (11742367_at) / RFU PRRT2 (11749266_a_at) / Fold change /veh PRRT2 (11749266_a_at) / RFU SNX32 (11753110_a_at) / Fold change /veh SNX32 (11753110_a_at) / RFU CDHR5 (11726645_a_at) / Fold change /veh CDHR5 (11726645_a_at) / RFU RCAN1 (11760418_a_at) / Fold change /veh RCAN1 (11760418_a_at) / RFU FAM167A (11723789_a_at) / Fold change /veh FAM167A (11723789_a_at) / RFU FAM26E (11764081_at) / Fold change /veh FAM26E (11764081_at) / RFU ISYNA1 (11749810_s_at) / Fold change /veh ISYNA1 (11749810_s_at) / RFU ACY1 (11761880_at) / Fold change /veh ACY1 (11761880_at) / RFU 11764098_at / Fold change /veh 11764098_at / RFU SAMD14 (11745864_x_at) / Fold change /veh SAMD14 (11745864_x_at) / RFU NPB (11741838_a_at) / Fold change /veh NPB (11741838_a_at) / RFU TMPRSS6 (11731388_a_at) / Fold change /veh TMPRSS6 (11731388_a_at) / RFU KRTAP10-2 (11738614_at) / Fold change /veh KRTAP10-2 (11738614_at) / RFU ARHGAP8 /// PRR5-ARHGAP8 (11727945_x_at) / Fold change /veh ARHGAP8 /// PRR5-ARHGAP8 (11727945_x_at) / RFU KRTAP5-7 /// NADSYN1 (11734609_at) / Fold change /veh KRTAP5-7 /// NADSYN1 (11734609_at) / RFU RASL12 (11751679_a_at) / Fold change /veh RASL12 (11751679_a_at) / RFU CDKN2B (11736163_a_at) / Fold change /veh CDKN2B (11736163_a_at) / RFU PRF1 (11729649_at) / Fold change /veh PRF1 (11729649_at) / RFU, ZNF638 /// ZNF638-IT1 / Fold change vs veh, ZNF638 /// ZNF638-IT1 / RFU, PANK3 / Fold change vs veh, PANK3 / RFU, SH3YL1 / Fold change vs veh, SH3YL1 / RFU, ZEB2 / Fold change vs veh, ZEB2 / RFU, NRIP1 / Fold change vs veh, NRIP1 / RFU, PTTG1IP / Fold change vs veh, PTTG1IP / RFU, CAPN2 / Fold change vs veh, CAPN2 / RFU, MED14 / Fold change vs veh, MED14 / RFU, SNORA58 / Fold change vs veh, SNORA58 / RFU, C1orf63 / Fold change vs veh, C1orf63 / RFU, LRRFIP1 / Fold change vs veh, LRRFIP1 / RFU, NDUFAF7 / Fold change vs veh, NDUFAF7 / RFU, SLC12A2 / Fold change vs veh, SLC12A2 / RFU, IBTK / Fold change vs veh, IBTK / RFU, ESF1 / Fold change vs veh, ESF1 / Fold change vs veh, TMEM50B / RFU, TAOK1 / Fold change vs veh, TAOK1 / RFU, ACBD3 / Fold change vs veh, ACBD3 / RFU, TMA16 / Fold change vs veh, TMA16 / RFU, RWDD3 / Fold change vs veh, RWDD3 / RFU, BCAT1 / Fold change vs veh, BCAT1 / RFU, EDEM3 / Fold change vs veh, EDEM3 / RFU, TMEM33 / Fold change vs veh, TMEM33 / RFU, WDR75 / Fold change vs veh, WDR75 / RFU, AHCTF1 / Fold change vs veh, AHCTF1 / RFU, TFRC / Fold change vs veh, TFRC / RFU, ZDHHC17 / Fold change vs veh, ZDHHC17 / RFU, NOM1 / Fold change vs veh, NOM1 / RFU, ARL8B / Fold change vs veh, ARL8B / RFU, ZBTB11 / Fold change vs veh, ZBTB11 / RFU, TAMM41 / Fold change vs veh, TAMM41 / RFU, KIAA1704 /// LOC100996395 / Fold change vs veh, KIAA1704 /// LOC100996395 / RFU, ING1 / Fold change vs veh, ING1 / RFU, TRMT61B / Fold change vs veh, TRMT61B / RFU, FUBP3 / Fold change vs veh, FUBP3 / RFU, TP53 / Fold change vs veh, TP53 / RFU, TNKS2 / Fold change vs veh, TNKS2 / RFU, ZFP14 / Fold change vs veh, ZFP14 / RFU, ACTR2 / Fold change vs veh, ACTR2 / RFU, PPP3R1 / Fold change vs veh, PPP3R1 / RFU, PIK3R1 / Fold change vs veh, PIK3R1 / RFU, HNRNPA1 / Fold change vs veh, HNRNPA1 / RFU, RNF170 / Fold change vs veh, RNF170 / RFU, ZNF28 / Fold change vs veh, ZNF28 / RFU, RNGTT / Fold change vs veh, RNGTT / RFU, OGT / Fold change vs veh, OGT / RFU, BRD1 / Fold change vs veh, BRD1 / RFU, MARS / Fold change vs veh, MARS / RFU, ZNF655 / Fold change vs veh, ZNF655 / RFU, FAHD1 / Fold change vs veh, FAHD1 / RFU, BDP1 / Fold change vs veh, BDP1 / RFU, LRRCC1 / Fold change vs veh, LRRCC1 / RFU, ARID1A / Fold change vs veh, ARID1A / RFU, ZNF146 / Fold change vs veh, ZNF146 / RFU, ZNF330 / Fold change vs veh, ZNF330 / RFU, GPN3 / Fold change vs veh, GPN3 / RFU, C9orf123 / Fold change vs veh, C9orf123 / RFU, N4BP2L2 / Fold change vs veh, N4BP2L2 / RFU, ARFIP1 / Fold change vs veh, ARFIP1 / RFU, FAM179B / Fold change vs veh, FAM179B / RFU, BCL10 / Fold change vs veh, BCL10 / RFU, UHRF1BP1L / Fold change vs veh, UHRF1BP1L / RFU, BET1 / Fold change vs veh, BET1 / RFU, CNOT2 / Fold change vs veh, CNOT2 / RFU, ZNF268 / Fold change vs veh, ZNF268 / Fold change vs veh, ZNF507 / RFU, DGCR2 / Fold change vs veh, DGCR2 / RFU, WDSUB1 / Fold change vs veh, WDSUB1 / Fold change vs veh, HSP90B1 /// MIR3652 / RFU, ADSS / Fold change vs veh, ADSS / RFU, GK / Fold change vs veh, GK / RFU, ZNF148 / Fold change vs veh, ZNF148 / RFU, TAF9 / Fold change vs veh, TAF9 / RFU, SLC1A5 / Fold change vs veh, SLC1A5 / RFU, SLMO2 / Fold change vs veh, SLMO2 / RFU, ABCC4 / Fold change vs veh, ABCC4 / RFU, LOC101060439 /// RAP1B / Fold change vs veh, LOC101060439 /// RAP1B / RFU, RFX7 / Fold change vs veh, RFX7 / RFU, GTPBP10 / Fold change vs veh, GTPBP10 / RFU, CNEP1R1 / Fold change vs veh, CNEP1R1 / RFU, BIVM-ERCC5 /// ERCC5 / Fold change vs veh, BIVM-ERCC5 /// ERCC5 / RFU, ILF3 / Fold change vs veh, ILF3 / RFU 11762660_at / Fold change /veh 11762660_at / RFU VCAN (11757783_s_at) / Fold change /veh VCAN (11757783_s_at) / RFU DDX43 (11728927_at) / Fold change /veh DDX43 (11728927_at) / RFU KRT8 (11758188_x_at) / Fold change /veh KRT8 (11758188_x_at) / RFU NKD1 (11759106_at) / Fold change /veh NKD1 (11759106_at) / RFU SRD5A1 (11742802_a_at) / Fold change /veh SRD5A1 (11742802_a_at) / RFU TPSAB1 /// TPSB2 (11721975_s_at) / Fold change /veh TPSAB1 /// TPSB2 (11721975_s_at) / RFU GSTM3 (11746129_a_at) / Fold change /veh GSTM3 (11746129_a_at) / RFU IL23R (11737362_x_at) / Fold change /veh IL23R (11737362_x_at) / RFU TMEM51 (11727254_a_at) / Fold change /veh TMEM51 (11727254_a_at) / RFU PIWIL2 (11732686_x_at) / Fold change /veh PIWIL2 (11732686_x_at) / RFU ORM1 (11744905_x_at) / Fold change /veh ORM1 (11744905_x_at) / RFU CCDC152 (11743942_at) / Fold change /veh CCDC152 (11743942_at) / RFU ECM1 (11717891_a_at) / Fold change /veh ECM1 (11717891_a_at) / RFU IL23R (11748794_a_at) / Fold change /veh IL23R (11748794_a_at) / RFU TNFAIP8L3 (11732012_x_at) / Fold change /veh TNFAIP8L3 (11732012_x_at) / RFU MBOAT4 (11741988_at) / Fold change /veh MBOAT4 (11741988_at) / RFU 11764193_at / Fold change /veh 11764193_at / RFU TMEM53 (11763286_at) / Fold change /veh TMEM53 (11763286_at) / RFU MAGEB2 (11727129_at) / Fold change /veh MAGEB2 (11727129_at) / RFU TMEM200A (11744735_a_at) / Fold change /veh TMEM200A (11744735_a_at) / RFU CCDC152 (11751479_a_at) / Fold change /veh CCDC152 (11751479_a_at) / RFU FAM211A (11726209_a_at) / Fold change /veh FAM211A (11726209_a_at) / RFU RGS16 (11746705_a_at) / Fold change /veh RGS16 (11746705_a_at) / RFU VCAN (11755009_s_at) / Fold change /veh VCAN (11755009_s_at) / RFU RHOB (11743442_s_at) / Fold change /veh RHOB (11743442_s_at) / RFU RGS16 (11720943_a_at) / Fold change /veh RGS16 (11720943_a_at) / RFU RGS16 (11720944_at) / Fold change /veh RGS16 (11720944_at) / RFU, VPS4B / Fold change vs veh, VPS4B / RFU, CREB1 / Fold change vs veh, CREB1 / RFU, DNAJC13 / Fold change vs veh, DNAJC13 / RFU, GNAQ / Fold change vs veh, GNAQ / RFU, CDK5R1 / Fold change vs veh, CDK5R1 / RFU, ZRANB3 / Fold change vs veh, ZRANB3 / RFU, CUL4A / Fold change vs veh, CUL4A / RFU, CCNY / Fold change vs veh, CCNY / RFU, UFL1 / Fold change vs veh, UFL1 / RFU, COG3 / Fold change vs veh, COG3 / RFU, DIAPH2 / Fold change vs veh, DIAPH2 / RFU, SKA2 / Fold change vs veh, SKA2 / RFU, AFF3 / Fold change vs veh, AFF3 / RFU, LMF1 / Fold change vs veh, LMF1 / RFU, IPO11 / Fold change vs veh, IPO11 / RFU, DFFB / Fold change vs veh, DFFB / RFU, FOXP1 / Fold change vs veh, FOXP1 / RFU, CARD8 / Fold change vs veh, CARD8 / RFU, STRN3 / Fold change vs veh, STRN3 / RFU, ADK / Fold change vs veh, ADK / RFU, RASSF2 / Fold change vs veh, RASSF2 / RFU, WIPF1 / Fold change vs veh, WIPF1 / RFU, LARP1B / Fold change vs veh, LARP1B / RFU, RASA1 / Fold change vs veh, RASA1 / RFU, RB1 / Fold change vs veh, RB1 / RFU, PPFIA1 / Fold change vs veh, PPFIA1 / RFU, MAT2A / Fold change vs veh, MAT2A / RFU, CCT5 / Fold change vs veh, CCT5 / RFU, WDR92 / Fold change vs veh, WDR92 / RFU, CUX1 / Fold change vs veh, CUX1 / RFU, TTC7A / Fold change vs veh, TTC7A / RFU, TMEM135 / Fold change vs veh, TMEM135 / RFU, DEPTOR / Fold change vs veh, DEPTOR / RFU, CPM / Fold change vs veh, CPM / RFU, DNAJB6 / Fold change vs veh, DNAJB6 / RFU, CACNA2D3 / Fold change vs veh, CACNA2D3 / RFU, DTX4 / Fold change vs veh, DTX4 / RFU, TFCP2 / Fold change vs veh, TFCP2 / RFU, GMCL1 /// GMCL1P1 / Fold change vs veh, GMCL1 /// GMCL1P1 / RFU, AEBP2 / Fold change vs veh, AEBP2 / RFU, SNHG1 /// SNORD22 /// SNORD25 /// SNORD26 /// SNORD27 /// SNORD28 /// SNORD29 /// SNORD31 / Fold change vs veh, SNHG1 /// SNORD22 /// SNORD25 /// SNORD26 /// SNORD27 /// SNORD28 /// SNORD29 /// SNORD31 / Fold change (Aza/veh), C12orf56 (ProbeSet 11735607_a_at) / Fold change (ACY-1035/veh), C12orf56 (ProbeSet 11735607_a_at) / Fold change (Aza/veh), FGFR1OP (ProbeSet 11751329_s_at) / Fold change (ACY-1035/veh), FGFR1OP (ProbeSet 11751329_s_at) / Fold change (Aza/veh), VPS36 (ProbeSet 11739960_a_at) / Fold change (ACY-1035/veh), VPS36 (ProbeSet 11739960_a_at) / RFU SYPL1 (11715823_x_at) / Fold change /veh SYPL1 (11715823_x_at) / RFU IGFBP7 (11715501_s_at) / Fold change /veh IGFBP7 (11715501_s_at) / RFU REEP3 (11722064_at) / Fold change /veh REEP3 (11722064_at) / RFU IGLL1 (11728026_x_at) / Fold change /veh IGLL1 (11728026_x_at): dose or concentration left out as unconfirmed.

On to `Nc1ncn([C@@H]2O[C@H](CO)[C@@H](O)[C@H]2O)c(=O)n1` [azacitidine], for which the “RFU, GNAQ” value is recorded as 421.57 RFU.

The record behind these values is publication PMC5218480 (PLoS ONE, 2017).
